Measured values published in patent US8486924B2, “Taxane delivery system” (Celator Pharmaceuticals, Inc., priority 2007, dated 2013).

Key:
[1] = prodrug/POPC/2.5kPS3k (1:1:2) nanoparticles in water; volume weighted average
Experimental: The prodrug, co-lipid and stabilizer polymers (typically on a 1:1:2 w/w basis) were dissolved in ethanol/THF (4:1) at a concentration of 40 mg/ml. The solvent was rapidly diluted with water using a four port CVIJ mixer^13, 14 with flow rates set at […] (solvent/water/water/water). Flow rates were controlled using Harvard Apparatus PHD2000 syringe pumps. The resultant solution was then dialyzed against water to remove residual solvent. […] When higher concentrations were required the dialyzed solution was diluted with equi-volumes of 600 mM sucrose and then concentrated using a 100 kD, 0.5 mm lumen, 60 cm path length MidGee hoop cartridge (GE Healthcare Life Sciences, Piscataway, N.J.) with a peristaltic pump. Particle size was determined using a Malvern Zetasizer Nano-ZS particle sizer and reported as volume weighted data.
Formulations were composed of a prodrug, a co-lipid and an amphipathic stabilizer in a weight ratio of 1:1:2, respectively at a concentration of 40 mg per mL of solvent. […] Poly(ethylene glycol)-b-polystyrene (2kPS3k or 2.5kPS3k) was used as the amphipathic stabilizer. Other stabilizers may also be used.

[2] = co-lipid POPC, prodrug/co-lipid/2.5kPS3k (1:1:2), vortexing 30 seconds
Experimental: The physical stability of formulations was investigated by examining changes in particle size after vortexing prodrug/co-lipid/2.5kPS3k (1:1:2) nanoparticles in water, 150 mM saline or 300 mM sucrose (Table 1). […] The increase in particle size was monitored by using dynamic light scattering to measure the Z average (the intensity weighted mean size of the particle distribution) value for samples before and after vigorous vortexing. The change in the Zave value was used as surrogate readout for the formation of aggregates or precipitates resulting from mechanical instability, where a higher value for ΔZave indicated a higher level of aggregation or precipitation (Table 1).

[3] = system: HT29 human colon carcinoma cells
Experimental: Female athymic nude mice (7-8 weeks old) were inoculated subcutaneously with 100 μl HT29 human colon carcinoma cells (2×10^6 cells) using a 26 gauge needle. Mice were randomly grouped (n=6/group) with a mean tumor size between 80 and 120 mg prior to first treatment. […] Subsequent injections were made according to the designated schedule. Tumor length and width measurements, body weight and in life observations were recorded 2-3 times per week. Tumor weight was calculated according to the formula (L×W^2)/2.
The relative efficacies of nanoparticle formulations of 1, 2, 4, 5, 6 and 7 were determined in the HT29 model using a 36 μmol/kg dose on a Q4Dx6 schedule (FIG. 3). Saline was used as a negative control.
(§1) The activity of 7 in POPC/2.5kPS3k nanoparticle formulations relative to paclitaxel was determined by comparing the efficacy of doses ranging from 0.25 to 3 mole equivalents of paclitaxel (FIG. 4) in the HT29 tumor model. Taxol® dosed at 23 μmol/kg on a Q2Dx5 schedule was used as a positive control.
The tumor growth data was analyzed by two methods to determine what dose of 7 would be equivalent to the Taxol® positive control.

[4] = Maximum tolerated dose on Q2D schedule in HT29 tumor model; format: in vivo, mice; details: POPC/2.5kPS3k nanoparticle formulation; Q2Dx5 schedule
Experimental: as §1, with “control. The dosing regime was chosen since the greatest efficacy for 7 was observed on a Q2D schedule, which was also optimal for Taxol®, and the maximum tolerated treatment course at this Taxol® dose was 5 injections. The maximum tolerate dose of 7 on this schedule was approximately 3 paclitaxel equivalents (69 μmol/kg).” for “control.”

[5] = system: MCF-7 human tumor cell line; details: read-out: IC50 values MCF-7; prodrug/POPC/2kPS3k (1:1:2) formulations; 72 hours; MTT; ± SD
[6] = mouse, in vivo
Experimental: Athymic nude mice (n=3/timepoint) were injected iv with test samples (10 μl/g body weight, to a maximum of 250 μl). Blood was collected at the designated time point by cardiac puncture and placed into EDTA coated microtainer tubes (BD Biosciences). The tubes were centrifuged at 2800 rpm for 10 minutes. Plasma was recovered and 50 μl aliquots analyzed by HPLC for drug content. Samples containing ^3H—CHE (50 μl) were diluted with PicoFluor40™ scintillation fluid (Packard) and counted on a Beckman-Coulter LS 6500 Multipurpose scintillation counter. The total drug (counts) per mouse in the blood compartment was calculated assuming a plasma volume of 0.04125 mL per gram of body weight.
Elimination studies tracking both the prodrug and the particle were conducted to obtain a more accurate description of the partitioning behavior of the prodrugs in vivo (FIG. 1). Prodrug elimination was followed by HPLC, while particle elimination rates were determined by labeling nanoparticles with tritiated cholesterylhexadecyl ether (3H—CHE).
Formulations comprised of 1/VES/2kPS3k (1:1:2) and 2/VES/2kPS3k (1:1:2) were labeled with trace amounts of ^3H—CHE and plasma levels of both the label and prodrug were monitored in Foxn1^nu mice (FIG. 1, Panel A).
Effect of prodrug partitioning on plasma drug elimination was determined. The prodrug panel was screened using prodrug/POPC/2kPS3k (1:1:2) nanoparticles in Foxn1^nu mice to determine elimination rates for the different prodrug conjugates (FIG. 2). […] Conjugates were formulated at a concentration of 0.7 mg/mL.
In order to estimate the partitioning half-life for each prodrug, it was assumed that 1 tracked the particle elimination rate based on the results discussed above. The elimination of all other prodrugs were then fitted to four parameter double exponential decay curves and normalized against 1.

[7] = system: A2780 human tumor cell line; assay: MTT growth inhibition, A2780 cells, 72 hours; details: read-out: IC50 values A2780, prodrug/POPC/2kPS3k (1:1:2) formulations, ± SD

CCCCCCCCCCCCCCCCCCCCCCOC(=O)COCC(=O)OC(C(=O)OC1CC2(O)C(OC(=O)c3ccccc3)C3C4(OC(C)=O)COC4CC(O)C3(C)C(=O)C(OC(C)=O)C(=C1C)C2(C)C)C(NC(=O)c1ccccc1)c1ccccc1 (stereo not shown) [Prodrug 7, 2′-O-(5″-O-docosanyldiglycoloyl)-paclitaxel]
Diameter [1]: 23 nm
ΔZave 150 mM saline ([2]; 150 mM saline): 24 nm
ΔZave 300 mM sucrose ([2]; 300 mM sucrose): 0 nm
ΔZave water ([2]; water): 18 nm
dose achieving parity with Taxol (delay in reaching tumor size of 125 mg from start of treatment) ([3]; HT29, Q2Dx5, fitted curve, normalized to Taxol 23 μmol/kg): 1.75 dose equivalents of paclitaxel
dose achieving parity with Taxol (delay in reaching tumor size of 300 mg relative to saline) ([3]; HT29, Q2Dx5, linear dose response, normalized to Taxol 23 μmol/kg): 1.65 paclitaxel equivalents
dose achieving equivalent efficacy to Taxol at MTD ([3]; HT29, titration 0.25x to 3x paclitaxel equivalents): approximately 1.7 paclitaxel equivalents
tumor size at day 60 ([3]; HT29, treated at MTD, Q2Dx5): below 50 mg
treatment induced delay in reaching a mean tumor size of 500 mm^3 ([3]; HT29 model, 36 μmol/kg, Q4Dx6, nanoparticle formulations): 17 days
maximum tolerated dose [4]: 69 µmol/kg
IC50 [5]: 23.5 ± 1.3 nM
partitioning half life [6]: ~10 h
IC50 [7]: 29.5 ± 5.2 nM
